These results are taken from patent US20230279020A9, “CARM1 INHIBITORS AND USES THEREOF” (Epizyme, Inc., priority 2013, published 2023).

The target in this assay is Human CARM1 (PRMT4) (Homo sapiens (Human), UniProt Q86X55). Kind of assay: CARM1 enzyme assay on peptide substrate (3H-SAM Flashplate). Conditions: Biochemical potencies, classification codes; read-out: Biochem IC50.
Sequence of Human CARM1 (PRMT4) (Q86X55 other isoform, or with tags, fused parts or gaps isoform Q86X55-1): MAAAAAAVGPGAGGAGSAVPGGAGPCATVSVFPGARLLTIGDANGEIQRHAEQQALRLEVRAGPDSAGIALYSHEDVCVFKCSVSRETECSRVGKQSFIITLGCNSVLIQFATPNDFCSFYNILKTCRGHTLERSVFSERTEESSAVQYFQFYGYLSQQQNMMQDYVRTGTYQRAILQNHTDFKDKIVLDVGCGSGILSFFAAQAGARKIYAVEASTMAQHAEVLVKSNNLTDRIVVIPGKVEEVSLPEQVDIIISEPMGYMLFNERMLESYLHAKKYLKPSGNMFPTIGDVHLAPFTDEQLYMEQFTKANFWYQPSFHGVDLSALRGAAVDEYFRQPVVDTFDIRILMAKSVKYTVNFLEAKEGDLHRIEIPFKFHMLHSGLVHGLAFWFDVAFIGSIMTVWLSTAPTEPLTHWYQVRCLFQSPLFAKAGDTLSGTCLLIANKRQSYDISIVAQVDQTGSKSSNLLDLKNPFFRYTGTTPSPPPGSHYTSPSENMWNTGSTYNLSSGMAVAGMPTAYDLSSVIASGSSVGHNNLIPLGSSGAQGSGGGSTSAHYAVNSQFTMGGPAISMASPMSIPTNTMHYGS
On to `CNCC(O)COc1cccc(-c2nc(-c3c(C)noc3C)c(C)c(N3CC[C@H](N(C)C(C)=O)C3)n2)c1` (stereo partly drawn) [Example 71-1a], for which the IC50 (as a rule, the midpoint of a concentration-inhibition curve) is < 100 nM.

Regarding `CCS(=O)(=O)N1CCOC[C@@H]1CNc1nc(-c2cccc(OCC(O)CNC)c2)nc(-c2c(C)nsc2C)c1C` (stereo partly drawn) [Example 71-3], the IC50 is < 100 nM. As for `CNCC(O)COc1cccc(-c2nc(Nc3cnc(OC)nc3)cc(-c3c(C)noc3C)n2)c1` (stereo not drawn) [Example 72-1a], the figure is < 100 nM; as for `CNC[C@H](O)COc1ccc(F)c(-c2nc(NC3CCOCC3)c(C)c(-c3c(C)noc3C)n2)c1` [Example 72-3], < 100 nM. Regarding `CNC[C@H](O)COc1ccc(F)c(-c2nc(NC3CCOC(C)C3)c(C)c(-c3c(C)noc3C)n2)c1` (stereo partly drawn) [Example 73-3], the IC50 is < 100 nM. As for `CNCC(O)COc1cc(N)cc(-c2nc(NC3CCOCC3)c(C)c(-c3c(C)noc3C)n2)c1` (stereo not drawn) [Example 74-1a], the figure is < 100 nM; as for `CNC[C@H](O)COc1ccc(Cl)c(-c2nc(-c3c(C)noc3C)c(C)c(N3CCN(C)C(C(F)F)C3)n2)c1` (stereo partly drawn) [Example 74-3], < 100 nM; as for `CNCC(O)COc1cc(OC)cc(-c2nc(NC3CCOCC3)c(C)c(-c3c(C)noc3C)n2)c1` (stereo not drawn) [Example 75-1a], < 100 nM. As for `CNC[C@H](O)COc1ccc(Cl)c(-c2nc(-c3c(C)noc3C)c(C)c(N3CCC4(CC3)CN(S(C)(=O)=O)C4)n2)c1` [Example 75-3], the figure is < 100 nM.

`CNCC(O)COc1cc(O)cc(-c2nc(NC3CCOCC3)c(C)c(-c3c(C)noc3C)n2)c1` (stereo not drawn) [Example 76-1a]: the IC50 is < 100 nM. The same measure for `CNC[C@H](O)COc1ccc(F)c(-c2nc(-c3c(C)noc3C)c(C)c(N3CCC4(CC3)CN(S(C)(=O)=O)C4)n2)c1` [Example 76-3]: < 100 nM; for `CCOC(=O)N1CCN(c2nc(-c3cccc(OCC(O)CNC)c3)nc(-c3c(C)noc3C)c2C)CC1` (stereo not drawn) [Example 77-1a]: < 100 nM. The same measure for `CCN1CCC[C@@H]1CNc1nc(-c2cc(OC[C@@H](O)CNC)ccc2Cl)nc(-c2c(C)noc2C)c1C` [Example 77-3]: < 100 nM; for `CNCC(O)COc1cccc(-c2nc(NCC3CCOCC3)cc(-c3c(C)noc3C)n2)c1` (stereo not drawn) [Example 78-1a]: < 100 nM; for `CNCC(O)COc1cccc(-c2nc(-c3c(C)noc3C)cc(N3CCN(CC(F)F)CC3)n2)c1` (stereo not drawn) [Example 79-1a]: < 100 nM. The same measure for `CNCC(O)COc1cccc(-c2nc(-c3c(C)noc3C)cc(N3C[C@@H]4C[C@H]3CN4S(C)(=O)=O)n2)c1` (stereo partly drawn) [Example 80-1a]: < 100 nM. Regarding `CNCC(O)COc1cccc(-c2nc(-c3c(C)noc3C)cc(N3CCN(C(=O)OC)CC3)n2)c1` (stereo not drawn) [Example 81-1a], the IC50 is < 100 nM. The same measure for `CNC[C@H](O)COc1ccc(Cl)c(-c2nc(NCCC(C)(C)OC)c(C)c(-c3c(C)noc3C)n2)c1` [Example 82-3]: < 100 nM; for `CNC[C@H](O)COc1ccc(F)c(-c2nc(NCCC(C)(C)OC)c(C)c(-c3c(C)noc3C)n2)c1` [Example 83-3]: < 100 nM. The same measure for `CNCC(O)COc1cccc(-c2nc(-c3c(C)noc3C)c(C)c(N3C[C@@H]4C[C@H]3CN4C)n2)c1` (stereo partly drawn) [Example 84-1a]: < 100 nM. The same measure for `CNC[C@H](O)COc1ccc(F)c(-c2nc(-c3c(C)noc3C)c(C)c(N3CCC4(CC3)CN(C(=O)OC)C4)n2)c1` [Example 84-3]: < 100 nM. Turning to `CNCC(O)COc1cccc(-c2nc(NC3(C)CCOCC3)cc(-c3c(C)noc3C)n2)c1` (stereo not drawn) [Example 85-1a], the IC50 is < 100 nM.

Regarding `CNC[C@H](O)COc1ccc(Cl)c(-c2nc(-c3c(C)noc3C)c(C)c(N3CCC4(CC3)CN(C(=O)OC)C4)n2)c1` [Example 85-3], the concentration for half-maximal inhibition (IC50) is < 100 nM.

`CNCC(O)COc1cccc(-c2nc(-c3c(C)noc3C)c(C)c(N(C)CC3CCOCC3)n2)c1` (stereo not drawn) [Example 86-1a]: the IC50 is < 100 nM. As for `CNC[C@H](O)COc1ccc(Cl)c(-c2nc(-c3c(C)noc3C)c(C)c(N3Cc4cc(F)cnc4C3)n2)c1` [Example 86-3], the figure is < 100 nM; as for `CNCC(O)COc1cccc(-c2nc(-c3c(C)noc3C)cc(N(C)CC3CCOCC3)n2)c1` (stereo not drawn) [Example 87-1a], < 100 nM.

For `CNC[C@H](O)COc1ccc(Cl)c(-c2nc(-c3c(C)noc3C)c(C)c(N3Cc4cc(Cl)cnc4C3)n2)c1` [Example 87-3], the IC50 was < 100 nM. Turning to `CNCC(O)COc1cccc(-c2nc(NCC3CCOCC3)c(C)c(-c3c(C)noc3C)n2)c1` (stereo not drawn) [Example 88-1a], the IC50 was < 100 nM.

Regarding `CCOC(=O)N1CCC(Nc2nc(-c3cc(OC[C@H](O)CNC)ccc3Cl)nc(-c3c(C)noc3C)c2C)CC1` [Example 88-3], the IC50 is < 100 nM.

For `CNCC(O)COc1cccc(-c2nc(-c3c(C)noc3C)c(C)c(N(C)C3CCN(C(=O)OC)CC3)n2)c1` (stereo not drawn) [Example 89-1a], the IC50 is < 100 nM. With `CNC[C@H](O)COc1ccc(Cl)c(-c2nc(NC3CCN(C(=O)OC)CC3)c(C)c(-c3c(C)noc3C)n2)c1` [Example 89-3], the IC50 is < 100 nM. `CNCC(O)COc1cccc(-c2nc(-c3c(C)noc3C)cc(N(C)C3CCN(C(=O)OC)CC3)n2)c1` (stereo not drawn) [Example 90-1a]: the IC50 was < 100 nM.

Consider `CNC[C@H](O)COc1ccc(Cl)c(-c2nc(-c3c(C)noc3C)c(C)c(N3Cc4ccncc4C3)n2)c1` [Example 90-3], for which the IC50 was < 100 nM.

In the case of `CNCC(O)COc1cccc(-c2nc(-c3c(C)noc3C)cc(N3CCN(C(=O)N(C)C)[C@@H](C)C3)n2)c1` (stereo partly drawn) [Example 91-1a], the IC50 was < 100 nM. For the molecule `CNC[C@H](O)COc1ccc(F)c(-c2nc(-c3c(C)noc3C)c(C)c(N3Cc4cccnc4C3)n2)c1` [Example 91-3], the IC50 is < 100 nM. Consider `CNCC(O)COc1cccc(-c2nc(-c3c(C)noc3C)cc(N3CCN(S(C)(=O)=O)[C@@H](C)C3)n2)c1` (stereo partly drawn) [Example 92-1a], for which the IC50 is < 100 nM. `CNC[C@H](O)COc1ccc(Cl)c(-c2nc(-c3c(C)noc3C)c(C)c(N3Cc4cccnc4C3)n2)c1` [Example 92-3]: the IC50 is < 100 nM. As for `CNCC(O)COc1cccc(-c2nc(-c3c(C)noc3C)cc(N3CCN(C)[C@@H](C)C3)n2)c1` (stereo partly drawn) [Example 93-1a], the figure is < 100 nM; as for `CCOC(=O)N1CCOC[C@@H]1CNc1nc(-c2cc(OCC(O)CNC)ccc2Cl)nc(-c2c(C)nsc2C)c1C` (stereo partly drawn) [Example 93-3], < 100 nM.

For `CNCC(O)COc1cccc(-c2nc(-c3c(C)noc3C)cc(N3C[C@@H]4C[C@H]3CN4C(=O)OC)n2)c1` (stereo partly drawn) [Example 94-1a], the IC50 is < 100 nM. As for `CNC[C@H](O)COc1ccc(Cl)c(-c2nc(N[C@@H]3CCOC3)c(C)c(-c3c(C)noc3C)n2)c1` [Example 94-3], the figure is < 100 nM; as for `CNCC(O)COc1cccc(-c2nc(-c3c(C)noc3C)cc(N3C[C@@H]4C[C@H]3CN4C(C)=O)n2)c1` (stereo partly drawn) [Example 95-1a], < 100 nM. As for `CNC[C@H](O)COc1ccc(Cl)c(-c2nc(-c3c(C)noc3C)c(C)c(N(C)[C@H]3C[C@@](C)(OC)C3)n2)c1` [Example 95-3], the figure is < 100 nM; as for `CNCC(O)COc1cccc(-c2nc(NC3CCOCC3)c(F)c(-c3c(C)noc3C)n2)c1` (stereo not drawn) [Example 96-1a], < 100 nM.

Take `CNC[C@H](O)COc1ccc(Cl)c(-c2nc(NCC3COCCO3)c(C)c(-c3c(C)noc3C)n2)c1` (stereo partly drawn) [Example 96-3]: the IC50 was < 100 nM.
